Results on 20 compounds are retold here after US11897867B2, “6-phenyl-4,5-dihydropyridazin-3(2H)-one derivatives as PDE3A and PDE3B inhibitors for treating cancer” (Bayer Aktiengesellschaft, priority 2017, dated 2024).

The test system of experiment [1] is HeLa cells (cervical cancer). The experiment is described as follows: Cell proliferation measurement (Cell Titer Glo), HeLa. The format is cell-based. The following applies: Homo sapiens, 72 h treatment, read-out: Anti-proliferation IC50 HeLa (Cervical cancer). The method, then: (§1) The antiproliferative activity of the compounds of the general formula (I) was examined in vitro in human cancer cells. For this purpose, 1000 cells (or 500 HeLa cells) were plated in 384-well plates with appropriate growth medium and incubated at 37° C. overnight. After 24 h, the cells on the test plate were treated with the compounds of the general formula (I) as and incubated at 37° C. for 72 h. The compounds were added to the cells by means of an HP D300 digital dispenser in a 10 (or more)-step dilution series. As control, the cells were treated with vehicle (DMSO at 0.3% final concentration). After 72 h, the cells were treated with 20 μl/well of 50% CTG solution in PBS (Promega Cell Titer Glo (catalogue #G755B and G756B)) and incubated at room temperature for 10 min, and luminescence was measured by means of a VICTOR V (Perkin Elmer), in order to determine cell viability at the end of treatment. The percentage effect on cell growth and the IC50 derived therefrom were determined for each test substance using the values from untreated wells (=percent viability). The IC50 values were calculated using a 4-parameter fit.

In a further experiment the test system is SK-MEL-3 (melanoma). Briefly: Cell proliferation measurement (Cell Titer Glo), SK-MEL-3. The format is cell-based. The following applies: Homo sapiens, SK-MEL3, SK-MEL-3 cells, 72 h treatment, read-out: Anti-proliferation IC50 SK-MEL-3 (melanoma). The method, then: as §1
(In general: Cellular ATP, detected with luciferase, serves as a proxy for viable cell number.)

The next experiment deals with T1, human full length PDE3A (Homo sapiens, UniProt Q14432).
T1 construct: Sf9 cells overexpressing human full length PDE3A; purchased SB Drug Discovery, UK; host or cells: Sf9 cells (cell extract)
T1 sequence (Q14432 whole entry): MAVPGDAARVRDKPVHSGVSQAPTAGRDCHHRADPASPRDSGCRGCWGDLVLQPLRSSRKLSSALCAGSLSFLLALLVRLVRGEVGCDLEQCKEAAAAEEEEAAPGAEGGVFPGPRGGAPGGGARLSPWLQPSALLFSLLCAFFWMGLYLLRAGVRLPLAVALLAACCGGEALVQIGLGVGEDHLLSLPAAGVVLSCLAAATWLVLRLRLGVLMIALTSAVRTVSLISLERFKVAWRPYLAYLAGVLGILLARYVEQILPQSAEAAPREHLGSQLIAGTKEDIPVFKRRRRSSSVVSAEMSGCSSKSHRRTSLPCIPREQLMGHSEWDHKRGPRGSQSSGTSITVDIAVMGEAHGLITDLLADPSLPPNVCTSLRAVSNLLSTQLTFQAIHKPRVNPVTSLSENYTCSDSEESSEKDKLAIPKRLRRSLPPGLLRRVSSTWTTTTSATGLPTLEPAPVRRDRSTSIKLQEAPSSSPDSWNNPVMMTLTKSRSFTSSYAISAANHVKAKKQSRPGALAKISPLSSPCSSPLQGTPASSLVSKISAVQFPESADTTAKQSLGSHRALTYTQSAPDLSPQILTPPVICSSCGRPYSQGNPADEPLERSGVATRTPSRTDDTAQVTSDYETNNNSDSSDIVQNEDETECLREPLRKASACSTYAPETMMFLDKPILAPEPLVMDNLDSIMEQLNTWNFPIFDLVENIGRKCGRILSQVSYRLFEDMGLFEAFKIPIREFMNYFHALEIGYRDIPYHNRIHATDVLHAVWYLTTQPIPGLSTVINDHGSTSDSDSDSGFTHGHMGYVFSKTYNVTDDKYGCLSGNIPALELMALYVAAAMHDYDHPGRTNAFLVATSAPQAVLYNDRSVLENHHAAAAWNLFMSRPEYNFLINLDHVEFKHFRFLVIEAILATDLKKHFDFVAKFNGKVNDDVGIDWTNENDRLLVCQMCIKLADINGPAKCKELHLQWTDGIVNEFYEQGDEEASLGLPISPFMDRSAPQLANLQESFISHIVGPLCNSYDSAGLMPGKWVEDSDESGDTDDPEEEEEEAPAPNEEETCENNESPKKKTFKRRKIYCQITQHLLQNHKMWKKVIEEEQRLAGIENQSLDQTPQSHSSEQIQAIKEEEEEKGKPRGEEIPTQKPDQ
Briefly: PDE3A enzyme inhibition (3H-cAMP Scintillation Proximity Assay). The format is biochemical. The following applies: PDE3A cell extract from Sf9 cells, 60 min room temperature; read-out: Target IC50 PDE3A IC50. The method, then: (§2) The commercially available 3H-cAMP Scintillation Proximity Assay (SPA, Perkin Elmer) system was used for enzyme inhibition studies. For the determination of the in vitro effect of test substances on the PDE3A reactions 2 μl of the respective test compound solution in DMSO (serial dilutions) were is placed in wells of microtiter plates (Isoplate-96/200W; Perkin Elmer). 50 μl of a dilution of PDE3A cell extract from Sf9 cells overexpressing human full length PDE3A (SB Drug Discovery, UK) in buffer A (50 mM Tris/HCl pH 7.5, 8.3 mM MgCl2, 1.7 mM EDTA, 0.2% BSA) was added. The dilution of the PDE3A cell extract was chosen such that the reaction kinetics was linear and less than 70% of the substrate was consumed (typical dilution 1:5000). The reaction was started by addition of 50 μl (0.025 μCi) of 1:2000 in buffer A w/o BSA diluted substrate [8-3H] adenosine 3′,5′-cyclic phosphate (1 μCi/μl; Perkin Elmer). After incubation at room temperature for 60 min, the reaction was stopped by addition of 25 μl of a suspension containing 18 mg/ml yttrium scintillation proximity beads (Perkin Elmer) in water. The microtiter plates were sealed and measured in a Microbeta scintillation counter (PerkinElmer Wallac). IC50 values were determined from sigmoidal curves by plotting percentage PDE3A activity vs log compound concentration.

In another experiment the target is T2, human full length PDE3B (Homo sapiens, UniProt Q13370).
T2 construct: Sf9 cells overexpressing human full length PDE3B; purchased SB Drug Discovery, UK; host or cells: Sf9 cells (cell extract)
T2 sequence (Q13370 whole entry): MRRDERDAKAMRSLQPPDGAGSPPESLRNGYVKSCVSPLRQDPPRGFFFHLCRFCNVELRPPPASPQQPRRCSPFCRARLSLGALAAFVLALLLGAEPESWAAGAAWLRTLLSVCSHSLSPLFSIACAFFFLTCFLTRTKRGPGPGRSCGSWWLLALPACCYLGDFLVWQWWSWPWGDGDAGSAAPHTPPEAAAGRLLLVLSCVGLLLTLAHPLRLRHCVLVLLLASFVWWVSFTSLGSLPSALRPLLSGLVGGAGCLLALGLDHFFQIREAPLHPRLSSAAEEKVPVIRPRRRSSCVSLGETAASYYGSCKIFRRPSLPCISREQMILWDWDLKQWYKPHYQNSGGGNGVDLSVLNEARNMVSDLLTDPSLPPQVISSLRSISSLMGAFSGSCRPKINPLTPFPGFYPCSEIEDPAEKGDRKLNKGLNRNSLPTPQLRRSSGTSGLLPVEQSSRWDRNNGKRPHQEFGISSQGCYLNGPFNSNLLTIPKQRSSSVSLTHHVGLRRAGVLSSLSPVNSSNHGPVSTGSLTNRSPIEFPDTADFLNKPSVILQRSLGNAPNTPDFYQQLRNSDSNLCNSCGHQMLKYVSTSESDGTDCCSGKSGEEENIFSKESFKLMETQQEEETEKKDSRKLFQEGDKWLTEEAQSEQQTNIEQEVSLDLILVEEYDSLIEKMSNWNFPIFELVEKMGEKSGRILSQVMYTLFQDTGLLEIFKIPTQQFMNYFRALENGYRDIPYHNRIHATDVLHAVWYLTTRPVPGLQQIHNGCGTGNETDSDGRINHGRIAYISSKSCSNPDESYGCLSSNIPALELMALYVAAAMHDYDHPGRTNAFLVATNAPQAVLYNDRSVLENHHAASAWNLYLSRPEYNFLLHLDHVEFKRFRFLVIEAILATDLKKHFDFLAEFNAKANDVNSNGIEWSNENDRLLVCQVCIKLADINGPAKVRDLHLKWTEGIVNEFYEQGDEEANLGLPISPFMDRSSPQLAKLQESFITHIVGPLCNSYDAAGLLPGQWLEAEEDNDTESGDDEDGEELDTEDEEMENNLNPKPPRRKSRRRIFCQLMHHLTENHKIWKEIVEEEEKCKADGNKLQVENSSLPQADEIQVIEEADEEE
The experiment is described as follows: PDE3B enzyme inhibition (3H-cAMP Scintillation Proximity Assay). The format is biochemical. The following applies: PDE3B cell extract from Sf9 cells, 60 min room temperature; read-out: Target IC50 PDE3B IC50. The method, then: as §2, with “PDE3B” for “PDE3A”, “were” for “were is”, “1:6000).” for “1:5000).”
Background: Scintillation proximity formats need no separation of bound from free tracer.

With `O=C1CCC(c2ccc(C3=CCOCC3)cc2)=NN1` [Example 1, 6-[4-(3,6-Dihydro-2H-pyran-4-yl)phenyl]-4,5-dihydropyridazin-3(2H)-one], the IC50 was 30.9 nM in experiment [1], over 100 nM with SK-MEL-3 (melanoma), 470 nM on human full length PDE3A and 290 nM on human full length PDE3B.

In the case of `Cc1cc(C2=NNC(=O)CC2)ccc1-c1cccnc1` [Example 2, 6-[3-Methyl-4-(pyridin-3-yl)phenyl]-4,5-dihydropyridazin-3(2H)-one], the IC50 in experiment [1] was 5.72 nM; with SK-MEL-3 (melanoma) it was 14.5 nM; at human full length PDE3A, 65 nM; on human full length PDE3B, 67 nM.

For the compound `Cc1cc(F)ccc1-c1ccc(C2=NNC(=O)CC2)cc1C` [Example 4, 6-(4′-Fluoro-2,2′-dimethylbiphenyl-4-yl)-4,5-dihydropyridazin-3(2H)-one], the IC50 worked out at 12.5 nM in experiment [1], 22.8 nM in the experiment with SK-MEL-3 (melanoma), 420 nM on human full length PDE3A and 160 nM at human full length PDE3B.

Turning to `Cc1cc(C2=NNC(=O)CC2)ccc1-c1ccncc1` [Example 5, 6-[3-Methyl-4-(pyridin-4-yl)phenyl]-4,5-dihydropyridazin-3(2H)-one], the IC50 in experiment [1] amounted to 21.3 nM; in the experiment with SK-MEL-3 (melanoma), 65.7 nM; on human full length PDE3A it was 120 nM; on human full length PDE3B, 39 nM.

As to `Cc1cc(C2=NNC(=O)CC2)ccc1-c1cn[nH]c1` [Example 6, 6-[3-Methyl-4-(1H-pyrazol-4-yl)phenyl]-4,5-dihydropyridazin-3(2H)-one], the IC50 in experiment [1] was 53.3 nM; with SK-MEL-3 (melanoma) it was 89.3 nM; at human full length PDE3A it was 72 nM; at human full length PDE3B it was 87 nM.

Turning to `Cc1cc(C2=NNC(=O)CC2)ccc1C1=CCOCC1` [Example 7, 6-[4-(3,6-Dihydro-2H-pyran-4-yl)-3-methylphenyl]-4,5-dihydropyridazin-3(2H)-one], the IC50 in experiment [1] is 55.6 nM; with SK-MEL-3 (melanoma), over 100 nM; on human full length PDE3A it was 200 nM; on human full length PDE3B, 35 nM.

Consider `O=C1CCC(c2ccc(-c3ccc(F)cc3)c(F)c2)=NN1` [Example 8, 6-(2,4′-Difluorobiphenyl-4-yl)-4,5-dihydropyridazin-3(2H)-one], for which the IC50 in experiment [1] amounted to 1.27 nM; with SK-MEL-3 (melanoma), 5.01 nM; at human full length PDE3A it was 90 nM; at human full length PDE3B, 49 nM.

Regarding `Nc1cc(-c2ccc(C3=NNC(=O)CC3)cc2F)ccc1Cl` [Example 9, 6-(3′-Amino-4′-chloro-2-fluorobiphenyl-4-yl)-4,5-dihydropyridazin-3(2H)-one], the IC50 in experiment [1] came out at 1.55 nM; in the experiment on SK-MEL-3 (melanoma), 2.12 nM; on human full length PDE3A, 90 nM; at human full length PDE3B it was 35 nM.

With `COc1ccc(C2=NNC(=O)CC2)cc1Cl` [Example 10, 6-(3-Chloro-4-methoxyphenyl)-4,5-dihydropyridazin-3(2H)-one], the IC50 in experiment [1] came out at 31.8 nM; with SK-MEL-3 (melanoma) it was 40.2 nM; on human full length PDE3A, 110 nM; at human full length PDE3B, 110 nM.

Take `Cc1cc(C2=NNC(=O)CC2)ccc1Cl` [Example 11, 6-(4-Chloro-3-methylphenyl)-4,5-dihydropyridazin-3(2H)-one]: the IC50 was 41.4 nM in experiment [1], 70.3 nM in the experiment on SK-MEL-3 (melanoma), 660 nM on human full length PDE3A and 710 nM on human full length PDE3B.

`O=C1CCC(c2cc(F)c(N3CCC(F)(F)CC3)c(F)c2)=NN1` [Example 12, 6-[4-(4,4-Difluoropiperidin-1-yl)-3,5-difluorophenyl]-4,5-dihydropyridazin-3(2H)-one]: the IC50 amounted to 5.48 nM in experiment [1], 11.4 nM with SK-MEL-3 (melanoma), 110 nM on human full length PDE3A and 62 nM at human full length PDE3B.

In the case of `N#Cc1cc(C2=NNC(=O)CC2)ccc1N1CCOCC1` [Example 15, 2-(Morpholin-4-yl)-5-(6-oxo-1,4,5,6-tetrahydropyridazin-3-yl)benzonitrile], the IC50 in experiment [1] turned out to be 44.8 nM; in the experiment on SK-MEL-3 (melanoma), 69.5 nM; on human full length PDE3A, 110 nM; at human full length PDE3B, 77 nM.

`O=C1CCC(c2cc(F)c(N3CCCCC3)c(F)c2)=NN1` [Example 16, 6-[3,5-Difluoro-4-(piperidin-1-yl)phenyl]-4,5-dihydropyridazin-3(2H)-one]: the IC50 was found to be 4.86 nM in experiment [1], 9.8 nM with SK-MEL-3 (melanoma), 405 nM at human full length PDE3A and 128 nM on human full length PDE3B.

For `CC1C2CC2CN1c1c(F)cc(C2=NNC(=O)CC2)cc1F` (stereo not drawn) [Example 17, 6-{3,5-Difluoro-4-[2-methyl-3-azabicyclo[3.1.0]hex-3-yl]phenyl}-4,5-dihydropyridazin-3(2H)-one], the IC50 in experiment [1] was 1.29 nM; with SK-MEL-3 (melanoma), 2.99 nM; on human full length PDE3A, 200 nM; at human full length PDE3B, 89 nM.

Consider `CCNc1ccc(C2=NNC(=O)CC2)cc1C(F)(F)F` [Example 18, 6-[4-(Ethylamino)-3-(trifluoromethyl)phenyl]-4,5-dihydropyridazin-3(2H)-one], for which the IC50 in experiment [1] was 5.39 nM; in the experiment with SK-MEL-3 (melanoma), 10.5 nM; on human full length PDE3A, 66 nM; on human full length PDE3B, 73 nM.

On to `O=C1CCC(c2ccc(N3CC(F)(F)C3)c(C(F)(F)F)c2)=NN1` [Example 19, 6-[4-(3,3-Difluoroazetidin-1-yl)-3-(trifluoromethyl)phenyl]-4,5-dihydropyridazin-3(2H)-one], for which the IC50 in experiment [1] is 5.76 nM; in the experiment on SK-MEL-3 (melanoma) it was 10.4 nM; at human full length PDE3A, 210 nM; on human full length PDE3B, 210 nM.

With `CC1CCCN1c1ccc(C2=NNC(=O)CC2)cc1C(F)(F)F` (stereo not drawn) [Example 20, 6-{4-[2-Methylpyrrolidin-1-yl]-3-(trifluoromethyl)phenyl}-4,5-dihydropyridazin-3(2H)-one], the IC50 in experiment [1] was 33.5 nM; in the experiment with SK-MEL-3 (melanoma), 47.7 nM; on human full length PDE3A, 220 nM; at human full length PDE3B, 160 nM.

With `O=C1CCC(c2ccc(N3CC4CC(C3)C4(F)F)c(C(F)(F)F)c2)=NN1` [Example 21, 6-[4-(6,6-Difluoro-3-azabicyclo[3.1.1]hept-3-yl)-3-(trifluoromethyl)phenyl]-4,5-dihydropyridazin-3(2H)-one], the IC50 in experiment [1] turned out to be 2.87 nM; with SK-MEL-3 (melanoma), 5.82 nM; at human full length PDE3A it was 82 nM; at human full length PDE3B, 50 nM.

As for `CNc1ccc(C2=NNC(=O)CC2)cc1C(F)(F)F` [Example 23, 6-[4-(Methylamino)-3-(trifluoromethyl)phenyl]-4,5-dihydropyridazin-3(2H)-one], the IC50 in experiment [1] is 58 nM; in the experiment on SK-MEL-3 (melanoma) it was 67.6 nM; on human full length PDE3A, 450 nM; on human full length PDE3B, 470 nM.

On to `O=C1CCC(c2ccc(-c3ccccc3C(F)(F)F)c(F)c2)=NN1` [Example 61, 6-[2-fluoro-2′-(trifluoromethyl)[1,1′-biphenyl]-4-yl]-4,5-dihydropyridazin-3(2H)-one], for which the IC50 in experiment [1] came out at 19.5 nM; with SK-MEL-3 (melanoma), 37.6 nM.
